From paper PMC2658777, “Prodrugs of Fluoro-Substituted Benzoates of EGC as Tumor Cellular Proteasome Inhibitors and Apoptosis Inducers” (International Journal of Molecular Sciences, 2008)
One block for each compound: values may come before it.

Tests used:
[1] = biological target: T1, purified rabbit 20S proteasome (chymotrypsin-like activity) (Oryctolagus cuniculus, UniProt G1T4Q9); experiment: Inhibition of the chymotrypsin-like activity of a purified 20S proteasome; format: biochemical; conditions: fluorogenic substrate, 2 h incubation
T1 construct: purchased Boston Biochem
T1 sequence (G1T4Q9 1-263): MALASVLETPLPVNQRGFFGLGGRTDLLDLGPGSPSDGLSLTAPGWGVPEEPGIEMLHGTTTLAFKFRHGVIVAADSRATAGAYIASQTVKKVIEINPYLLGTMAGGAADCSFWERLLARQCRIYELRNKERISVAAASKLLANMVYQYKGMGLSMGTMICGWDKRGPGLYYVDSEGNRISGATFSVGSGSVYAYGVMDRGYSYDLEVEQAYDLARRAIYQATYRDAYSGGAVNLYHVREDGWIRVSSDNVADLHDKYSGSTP
Protocol: We first tested the effect of these compounds on inhibiting the chymotrypsin-like activity of a purified 20S proteasome using purified EGCG as a positive control. Each of these compounds was incubated with a purified rabbit 20S proteasome and a fluorogenic substrate for chymotrypsin-like activity for 2 h. The half-maximal inhibitory concentration or IC50 was then determined.
Highly purified (-)-EGCG and dimethyl sulfoxide (DMSO) were purchased from Sigma-Aldrich. Purified 20S proteasome (rabbit) was purchased from Boston Biochem. Fluorogenic peptide substrate Suc-Leu-Leu-Val-Tyr-AMC (for the proteasomal chymotrypsin-like activity) was obtained from Calbiochem. Polyclonal antibody to ubiquitin, IκB-α̣ monoclonal anti-actin, anti-goat, anti-rabbit, and anti-mouse IgG-horseradish peroxidase were obtained from Santa Cruz Biotechnology Inc. Mouse monoclonal anitbody against human poly(ADP-ribose) polymerase (PARP) was purchased from Biomol International LP (Plymouth Meeting, PA). RPMI 1640, Penicillin and streptomycin were purchased from Invitrogen.

[2] = system: Human leukemia Jurkat T cells; experiment: Trypan blue dye exclusion cell death assay; format: cell-based; conditions: 50 μM, 24 h
Protocol: We first tested whether these Pro-F-EGCGs could induce cell death in tumor cells. Human leukemia Jurkat T cells were treated with 50 μM of each analog for 24 h, followed by Trypan-blue exclusion assay. Blue cells and cells with apoptosis-associated morphological changes (shrunken, blebbing, etc) were scored as dead cells. Pro-EGCG (1) and DMSO were used as controls.
The Trypan blue dye exclusion assay was performed by mixing 20 μL of cell suspension with 20 μL of 0.4% Trypan blue dye before injecting into a hemocytometer and counting. The number of cells that absorbed the dye and those that exclude the dye were counted, from which percentage of nonviable cell number over the total cell number was calculated.
(§1) Human leukemia Jurkat T cells were cultured in RPMI 1640 medium supplemented with 10% fetal calf serum, 100 units/mL of penicillin, and 100 μg/mL of streptomycin. Cells were maintained at 37 °C in a humidified incubator with an atmosphere of 5% CO2. Jurkat T cells were treated by selected compounds at various concentrations for indicated hours (see figure legends for details), and a whole-cell extract was then prepared as described previously. Briefly, cells were harvested, washed with PBS, and homogenized in a lysis buffer (50 mM, Tris-HCl, pH 8.0, 150 mM NaCl, 0.5% NP-40, 0.5 mM penylmethylsulfonyl fluoride, and 0.5 mM dithiothreitol) at 4 °C. Afterwards, the lysates were centrifuged at 12,000 × g for 15 min at 4 °C and the supernatants collected as whole-cell extracts.

[3] = system: caspase-3/7 activities in Jurkat T cells; experiment: Caspase-3/7 activity in extracts of treated cells; format: cell-based, human; conditions: 50 μM, 24 h (dose-dependent experiment)
Protocol: (§2) To study whether the induction of cell death by Pro-F-EGCG4 was due to its proteasome-inhibitory and apoptosis-inducing activities, Jurkat T cells were treated with 50 μM of Pro-F-EGCG4 and Pro-EGCG (1) as a control for 4, 8 and 24 h, followed by measurement of proteasome inhibition and apoptotic cell death. […] Previously, we reported that the p56 is an ubiquitinated form of IκB-α protein as a marker of proteasome inhibition, as verified by the immunoprecipitation-Western blot assay. […] Consistently, PARP cleavage fragment p85 was detected in Jurkat T cells treated with Pro-F-EGCG4 in a time-dependent manner (Fig. 3B). A p65 PARP fragment was also detected in cells treated with Pro-F-EGCG4 (Fig. 3B), indicating calpain activation occurred as well [14]. Apoptotic morphological changes were observed after 4 hours of treatment with Pro-F-EGCG4 (data not shown).
Human leukemia Jurkat T cells were cultured in RPMI 1640 medium supplemented with 10% fetal calf serum, 100 units/mL of penicillin, and 100 μg/mL of streptomycin. Cells were maintained at 37 °C in a humidified incubator with an atmosphere of 5% CO2. […]
Cells were treated with each compound at indicated concentration for indicated hours, harvested, and lysed as described previously. Ac-DEVD-AMC (40 μM) was then incubated with the prepared cell lysates for 2 h and the caspase-3 activity was measured as described previously.

[4] = system: proteasomal chymotrypsin (CT)-like activity in Jurkat T cells; experiment: Cellular proteasomal chymotrypsin-like activity in extracts of treated cells; format: cell-based, human
Protocol: as §2
We then performed a dose-dependent experiment. Jurkat T cells were treated with Pro-F-EGCG4 or Pro-EGCG (1) at 10, 25, or 50 μM for 24 h, followed by measurement of proteasome inhibition and apoptotic cell death.
as §1
Human leukemia Jurkat T cells were treated with each compound at indicated concentration for indicated hours (see the figure legends for details), harvested, and lysed as described previously. Whole cell extracts were prepared as detailed in section 3.4, aliquoted and kept at −80 °C. One of the aliquots was used for determination of protein concentration. After that, whole cell extracts (10 μg) from each preparation were incubated with Suc-Leu-Leu-Val-Tyr-AMC (20 μM) fluorogenic substrate at 37°C in 100 μl of assay buffer (50 mM Tris-HCL, pH 7.5) for 2 h. After incubation, production of hydrolyzed 7-amino-4-methylcoumarin (AMC) groups was measured using a Victor^3 Multilabel Counter with an excitation filter of 380 nm and an emission filter of 460 nm (PerkinElmer, Boston, MA, USA).

[5] = system: Jurkat T cells; experiment: Western blot of ubiquitinated IκB-α (p56), ubiquitinated proteins and PARP cleavage; format: cell-based, human; conditions: for p56 IκB-α (ubiquitinated form), Western blot: 50 μM; for accumulation of ubiquitinated proteins, Western blot: Jurkat T cells, 10, 25 or 50 μM
Protocol: as §2, §1
Analysis of IκB-α, PARP, and ubiquitinated proteins was performed using monoclonal or polyclonal antibodies, according to previously reported protocols.

[6] = design: method as in PMID 17477351; conditions: in vitro; cited from earlier work
[7] = system: human breast cancer xenografts; design: method as in PMID 17483343; conditions: human breast cancer xenografts in mice; cited from earlier work
[8] = Jurkat T cells, 50 μM, 4, 8 and 24 h
[9] = Jurkat T cells, 10, 25 or 50 μM, 24 h

IC50 [1]: 680 nM
SMILES: O=C(O[C@@H]1Cc2c(O)cc(O)cc2O[C@@H]1c1cc(O)c(O)c(O)c1)c1cc(O)c(O)c(O)c1 [(-)-EGCG, (-)-epigallocatechin-3-gallate, reference compound]

IC50 [1]: 1250 nM
SMILES: O=C(O[C@@H]1Cc2c(O)cc(O)cc2O[C@@H]1c1cc(O)c(O)c(O)c1)c1ccccc1F [F-EGCG1, (-)-(2R, 3R)-5,7-dihydroxy-2-(3,4,5-trihydroxyphenyl)chroman-3-yl 2-fluorobenzoate]

IC50 [1]: 840 nM
SMILES: O=C(O[C@@H]1Cc2c(O)cc(O)cc2O[C@@H]1c1cc(O)c(O)c(O)c1)c1cccc(F)c1 [F-EGCG2]

IC50 [1]: 1900 nM
SMILES: O=C(O[C@@H]1Cc2c(O)cc(O)cc2O[C@@H]1c1cc(O)c(O)c(O)c1)c1ccc(F)cc1 [F-EGCG3]

IC50 [1]: 650 nM
SMILES: O=C(O[C@@H]1Cc2c(O)cc(O)cc2O[C@@H]1c1cc(O)c(O)c(O)c1)c1ccc(F)c(F)c1 [F-EGCG4]

SMILES: CC(=O)Oc1cc(OC(C)=O)c2c(c1)O[C@H](c1cc(OC(C)=O)c(OC(C)=O)c(OC(C)=O)c1)[C@H](OC(=O)c1cc(OC(C)=O)c(OC(C)=O)c(OC(C)=O)c1)C2 [Pro-EGCG (1), reference compound]
cell death (dead cells over total cell population) [2]: ~ 70% | caspase 3/7 activity, induction [3]: 6 fold | proteasomal CT-like activity in treated cells [4, 8]: decrease in the level of the proteasomal CT-like activity in a time-dependent manner | proteasomal CT-like activity in treated cells [4, 9]: showed inhibition | p56 IκB-α (ubiquitinated form), Western blot ([5]; Jurkat T cells, all the time points (4, 8, 24 h)): increased level | accumulation of ubiquitinated proteins, Western blot ([5]; 24 h): accumulation of ubiquitinated proteins | cellular permeability and stability compared with natural EGCG [6]: significantly enhanced | anti-tumor activity compared with natural EGCG [7]: greater anti-tumor activity

SMILES: CC(=O)Oc1cc(OC(C)=O)c2c(c1)O[C@H](c1cc(OC(C)=O)c(OC(C)=O)c(OC(C)=O)c1)[C@H](OC(=O)c1ccccc1F)C2 [Pro-F-EGCG1, (-)-(2R, 3R)-5,7-Diacetoxy-2-(3,4,5-triacetoxyphenyl)chroman-3-yl 2-fluorobenzoate]
cell death (dead cells over total cell population) [2]: 44%

SMILES: CC(=O)Oc1cc(OC(C)=O)c2c(c1)O[C@H](c1cc(OC(C)=O)c(OC(C)=O)c(OC(C)=O)c1)[C@H](OC(=O)c1cccc(F)c1)C2 [Pro-F-EGCG2, (-)-(2R, 3R)-5,7-Diacetoxy-2-(3,4,5-triacetoxyphenyl)chroman-3-yl 3-fluorobenzoate]
cell death (dead cells over total cell population) [2]: 90%

SMILES: CC(=O)Oc1cc(OC(C)=O)c2c(c1)O[C@H](c1cc(OC(C)=O)c(OC(C)=O)c(OC(C)=O)c1)[C@H](OC(=O)c1ccc(F)cc1)C2 [Pro-F-EGCG3, (-)-(2R, 3R)-5,7-Diacetoxy-2-(3,4,5-triacetoxyphenyl)chroman-3-yl 4-fluorobenzoate]
cell death (dead cells over total cell population) [2]: 30%

SMILES: CC(=O)Oc1cc(OC(C)=O)c2c(c1)O[C@H](c1cc(OC(C)=O)c(OC(C)=O)c(OC(C)=O)c1)[C@H](OC(=O)c1ccc(F)c(F)c1)C2 [Pro-F-EGCG4, (-)-(2R,3R)-5,7-Diacetoxy-2-(3,4,5-triacetoxyphenyl)chroman-3-yl 3,4-difluorobenzoate]
cell death (dead cells over total cell population) [2]: 90% | proteasomal CT-like activity in treated cells [4, 8]: decreased level | proteasomal CT-like activity in treated cells [4, 9]: inhibited the proteasomal CT-like activity in a dose-dependent manner | PARP cleavage fragment p85, Western blot [5, 8]: detected | p56 IκB-α (ubiquitinated form), Western blot ([5]; Jurkat T cells, 4 or 8 h): induced the appearance | p56 IκB-α (ubiquitinated form), Western blot ([5]; Jurkat T cells, 24 h): not detected | accumulation of ubiquitinated proteins, Western blot ([5]; 24 h): caused accumulation of ubiquitinated proteins in a dose-dependent manner
